Results on 20 molecules are retold here after US20230143612A1 (Arbutus Biopharma Corporation, priority 2020, published 2023).

Chain of PD-L1 His protein / PD-1 Fc protein (Q9NZQ7 19-238 limits assumed): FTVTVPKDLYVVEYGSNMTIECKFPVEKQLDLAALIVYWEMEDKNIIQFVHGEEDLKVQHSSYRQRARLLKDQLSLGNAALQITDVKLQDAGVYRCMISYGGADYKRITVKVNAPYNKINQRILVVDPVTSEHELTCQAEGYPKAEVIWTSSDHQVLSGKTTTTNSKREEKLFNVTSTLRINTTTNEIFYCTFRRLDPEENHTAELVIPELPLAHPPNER

The target of the assay is PD-L1 His protein / PD-1 Fc protein (Homo sapiens, UniProt Q9NZQ7). As to the kind of experiment: HTRF Assay (PD-1/PD-L1 interaction). The note with it: PD-L1 His 6 nM, PD-1 Fc 6 nM. Format: binding. Summed up:
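Compounds tested from 20 μM down to 0.001 μM (3-fold) against 6 nM PD-L1 His and 6 nM PD-1 Fc, 15 min room temperature incubation. Detection after 1 h at room temperature with Tb cryptate anti-6HIS and XL665 anti-human IgG reagents (mixture at 0.35 nM and 6.7 nM), HTRF signal.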
On the technique in general: In TR-FRET formats the signal depends on donor and acceptor labels being close together.
Turning to `COc1nc(-c2cccc(-c3cccc(-c4ccn5c(=O)c(C)c(CNC[C@@H]6CCC(=O)N6)nc5c4)c3Cl)c2Cl)ccc1CNC[C@@H]1CCC(=O)N1` [Example 372, 8-(2,2′-Dichloro-3′-(6-methoxy-5-(((((S)-5-oxopyrrolidin-2-yl)methyl)amino)methyl)pyridin-2-yl)-[1,1′-biphenyl]-3-yl)-3-methyl-2-(((((S)-5-oxopyrrolidin-2-yl)methyl)amino)methyl)-4H-pyrido[1,2-a]pyrimidin-4-one], the IC50 is 0.06 µM.
The figure for `COc1nc(-c2cccc(-c3cccc(-c4ccn5c(=O)c(C)c(CN[C@H]6C[C@](C)(O)C6)nc5c4)c3Cl)c2Cl)ccc1CNC[C@@H]1CCC(=O)N1` [Example 373, 8-(2,2′-Dichloro-3′-(6-methoxy-5-(((((S)-5-oxopyrrolidin-2-yl)methyl)amino)methyl)pyridin-2-yl)-[1,1′-biphenyl]-3-yl)-2-((((1r,3r)-3-hydroxy-3-methylcyclobutyl)amino)methyl)-3-methyl-4H-pyrido[1,2-a]pyrimidin-4-one] is 0.033 µM.
In turn, `COc1nc(-c2cccc(-c3cccc(-c4ccn5c(=O)c6c(nc5c4)N(C)CCNC6)c3Cl)c2Cl)ccc1CNC[C@@H]1CCC(=O)N1` [Example 374, (S)-10-(2,2′-Dichloro-3′-(6-methoxy-5-((((5-oxopyrrolidin-2-yl)methyl)amino)methyl)pyridin-2-yl)-[1,1′-biphenyl]-3-yl)-1-methyl-2,3,4,5-tetrahydropyrido[1′,2′:1,2]pyrimido [4,5-e][1,4]diazepin-6(1H)-one] had an IC50 of 0.0065 µM.
In turn, `COc1nc(-c2cccc(-c3cccc(-c4cnc5c(CNC[C@@H]6CCC(=O)N6)cn(C)c5c4)c3Cl)c2Cl)ccc1CNC[C@@H]1CCC(=O)N1` [Example 375, (S)-5-((((6-(2,2′-Dichloro-3′-(1-methyl-3-(((((S)-5-oxopyrrolidin-2-yl)methyl)amino)methyl)-1H-pyrrolo[3,2-b]pyridin-6-yl)-[1,1′-biphenyl]-3-yl)-2-methoxypyridin-3-yl)methyl)amino)methyl)pyrrolidin-2-one] gave an IC50 of 0.18 µM.
The figure for `COc1nc(-c2cccc(-c3cccc(-c4ccn5c(=O)cc(CN[C@H]6C[C@](C)(O)C6)nc5c4)c3Cl)c2Cl)ccc1CNC[C@@H]1CCC(=O)N1` [Example 376, 8-(2,2′-Dichloro-3′-(6-methoxy-5-(((((S)-5-oxopyrrolidin-2-yl)methyl)amino)methyl)pyridin-2-yl)-[1,1′-biphenyl]-3-yl)-2-((((1r,3r)-3-hydroxy-3-methylcyclobutyl)amino)methyl)-4H-pyrido[1,2-a]pyrimidin-4-one] is 0.0007 µM.
As to `COc1nc(-c2cccc(-c3cccc(-c4ccn5c(=O)c(C)c(CNC[C@H](C)O)nc5c4)c3Cl)c2Cl)ccc1CNC[C@@H]1CCC(=O)N1` [Example 377, 8-(2,2′-Dichloro-3′-(6-methoxy-5-(((((S)-5-oxopyrrolidin-2-yl)methyl)amino)methyl)pyridin-2-yl)-[1,1′-biphenyl]-3-yl)-2-((((S)-2-hydroxypropyl)amino)methyl)-3-methyl-4H-pyrido[1,2-a]pyrimidin-4-one], it took 0.021 µM to reach half-maximal inhibition (IC50).
The figure for `COc1nc(-c2cccc(-c3cccc(-c4ccn5c(=O)c(CNCCO)cnc5c4)c3Cl)c2Cl)cc(Cl)c1CNC[C@@H]1CCC(=O)N1` [Example 378, (S)-8-(2,2′-Dichloro-3′-(4-chloro-6-methoxy-5-((((5-oxopyrrolidin-2-yl)methyl)amino)methyl)pyridin-2-yl)-[1,1′-biphenyl]-3-yl)-3-(((2-hydroxyethyl)amino)methyl)-4H-pyrido[1,2-a]pyrimidin-4-one] is 0.11 µM.
`COc1nc(-c2cccc(-c3cccc(-c4cnc5c(CNC[C@@H]6CCC(=O)N6)c(OC)nn5c4)c3Cl)c2Cl)ccc1CNC[C@@H]1CCC(=O)N1` [Example 379, (S)-5-((((6-(2,2′-Dichloro-3′-(2-methoxy-3-(((((S)-5-oxopyrrolidin-2-yl)methyl)amino)methyl)pyrazolo[1,5-a]pyrimidin-6-yl)-[1,1′-biphenyl]-3-yl)-2-methoxypyridin-3-yl)methyl)amino)methyl)pyrrolidin-2-one] returned an IC50 of 0.0056 µM. This IC50 is about 20-fold lower than that of the molecule before.
Take `COc1nc(-c2cccc(-c3cccc(-c4ccn5c(CNC[C@@H]6CCC(=O)N6)cnc5c4)c3Cl)c2Cl)ccc1CNC[C@@H]1CCC(=O)N1` [Example 380]: the IC50 came to 0.024 µM.
Regarding `O=C1CC[C@@H](CNCc2cnc3cc(-c4cccc(-c5cccc(-c6cnc7c(CNC[C@@H]8CCC(=O)N8)cnn7c6)c5Cl)c4Cl)ccn3c2=O)N1` [Example 381, 8-(2,2′-dichloro-3′-(3-(((((S)-5-oxopyrrolidin-2-yl)methyl)amino)methyl)pyrazolo[1,5-a]pyrimidin-6-yl)-[1,1′-biphenyl]-3-yl)-3-(((((S)-5-oxopyrrolidin-2-yl)methyl)amino)methyl)-4H-pyrido[1,2-a]pyrimidin-4-one], the IC50 was 0.0059 µM.
On to `COc1nc(-c2cccc(-c3cccc(-c4ccn5c(Cl)c(CNC[C@@H]6CCC(=O)N6)nc5c4)c3Cl)c2Cl)ccc1CNC[C@@H]1CCC(=O)N1` [Example 382, (5S)-5-[[[6-[2-chloro-3-[2-chloro-3-[3-chloro-2-[[[(2S)-5-oxopyrrolidin-2-yl]methylamino]methyl]imidazo[1,2-a]pyridin-7-yl]phenyl]phenyl]-2-methoxy-3-pyridyl]methylamino]methyl]pyrrolidin-2-one], for which the midpoint of inhibition, the IC50, lay at 0.11 µM.
For `COc1nc(-c2cccc(-c3cccc(-c4ccn5c(Cl)c(CNCCO)nc5c4)c3Cl)c2Cl)ccc1CNCCO` [Example 383, 2-[[6-[2-Chloro-3-[2-chloro-3-[3-chloro-2-[(2-hydroxyethylamino)methyl]imidazo[1,2-a]pyridin-7-yl]phenyl]phenyl]-2-methoxy-3-pyridyl]methylamino]etanol], the midpoint of inhibition, the IC50, lay at 0.04 µM.
`COC(=O)C(C)(C)CNCc1cnc2cc(-c3cccc(-c4cccc(-c5ccc(CNC[C@@H]6CCC(=O)N6)c(OC)n5)c4Cl)c3Cl)ccn2c1=O` [Example 384, methyl (S)-3-(((8-(2,2′-dichloro-3′-(6-methoxy-5-((((5-oxopyrrolidin-2-yl)-methyl)-amino)-methyl)-pyridin-2-yl)-[1,1′-biphenyl]-3-yl)-4-oxo-4H-pyrido[1,2-a]pyrimidin-3-yl)-methyl)-amino)-2,2-dimethylpropanoate] yielded an IC50 of 0.0027 µM.
On to `COc1nc(-c2cccc(-c3cccc(-c4ccc5[nH]c(CNC[C@@H]6CCC(=O)N6)c(Cl)c5n4)c3Cl)c2Cl)ccc1CNC[C@@H]1CCC(=O)N1` [Example 385, (S)-5-((((3-Chloro-5-(2,2′-dichloro-3′-(6-methoxy-5-(((((S)-5-oxopyrrolidin-2-yl)methyl)-amino)methyl)-pyridin-2-yl)-[1,1′-biphenyl]-3-yl)-1H-pyrrolo[3,2-b]-pyridin-2-yl)methyl)-amino)methyl)-pyrrolidin-2-one], for which half-maximal inhibition (IC50) required 0.013 µM.
Consider `COc1nc(-c2cccc(-c3cccc(-c4ccc5c(Cl)c(CNC[C@@H]6CCC(=O)N6)[nH]c5n4)c3Cl)c2Cl)ccc1CNC[C@@H]1CCC(=O)N1` [Example 386, (S)-5-((((3-Chloro-6-(2,2′-dichloro-3′-(6-methoxy-5-(((((S)-5-oxopyrrolidin-2-yl)methyl)-amino)methyl)-pyridin-2-yl)-[1,1′-biphenyl]-3-yl)-1H-pyrrolo[2,3-b]-pyridin-2-yl)methyl)-amino)methyl)-pyrrolidin-2-one], for which the IC50 came to 0.028 µM.
Regarding `COc1nc(-c2cccc(-c3cccc(N4Cc5cc(CNC[C@@H]6CCC(=O)N6)ccc5C4=O)c3Cl)c2Cl)ccc1CNC[C@@H]1CCC(=O)N1` [Example 387, 2-(2,2′-Dichloro-3′-(6-methoxy-5-(((((S)-5-oxopyrrolidin-2-yl)methyl)amino)methyl)pyridin-2-yl)-[1,1′-biphenyl]-3-yl)-5-(((((S)-5-oxopyrrolidin-2-yl)methyl)amino)methyl)isoindolin-1-one], 0.0001 µM corresponded to half-maximal inhibition (IC50).
The molecule `COc1nc(-c2cccc(-c3cccc(-c4ccc5c(CNC[C@@H]6CCC(=O)N6)cn(C)c5n4)c3Cl)c2Cl)ccc1CNC[C@@H]1CCC(=O)N1` [Example 388, (5S)-5-[[[6-[2-Chloro-3-[2-chloro-3-[1-methyl-3-[[[(2S)-5-oxopyrrolidin-2-yl]methylamino]methyl]pyrrolo[2,3-b]pyridin-6-yl]phenyl]phenyl]-2-methoxy-3-pyridyl]methylamino]methyl]pyrrolidin-2-one] gave a half-maximal inhibitory concentration (IC50) of 0.61 µM. Against the preceding molecule, the IC50 is about 6100-fold higher.
As for `COc1nc(-c2cccc(-c3cccc(-c4ccc5ncc(CNC[C@@H]6CCC(=O)N6)n5c4)c3Cl)c2Cl)ccc1CNC[C@@H]1CCC(=O)N1` [Example 389, (5S)-5-[[[6-[2-Chloro-3-[2-chloro-3-[3-[[[(2S)-5-oxopyrrolidin-2-yl]methylamino]methyl]imidazo[1,2-a]pyridin-6-yl]phenyl]phenyl]-2-methoxy-3-pyridyl]methylamino]methyl]pyrrolidin-2-one], the IC50 is 0.04 µM. This IC50 lies about 15-fold lower than the previous one.
`COc1nc(-c2cccc(-c3cccc(-c4ccc5nn(CCCN6C(=O)c7ccccc7C6=O)c(=O)n5c4)c3Cl)c2Cl)ccc1CNC[C@@H]1CCC(=O)N1` [Example 391, (S)-2-(3-(6-(2,2′-Dichloro-3′-(6-methoxy-5-((((5-oxopyrrolidin-2-yl)methyl)amino)methyl)pyridin-2-yl)-[1,1′-biphenyl]-3-yl)-3-oxo-[1,2,4]triazolo[4,3-a]pyridin-2(3H)-yl)propyl)isoindoline-1,3-dione] showed an IC50 of 0.065 µM.
`COc1nc(-c2cccc(-c3cccc(-c4ccc5nn(CCCN(CC(C)C)CC(C)C)c(=O)n5c4)c3Cl)c2Cl)ccc1CNC[C@@H]1CCC(=O)N1` [Example 392, (S)-6-(2,2′-Dichloro-3′-(6-methoxy-5-((((5-oxopyrrolidin-2-yl)methyl)-amino)-methyl)pyridin-2-yl)-[1,1′-biphenyl]-3-yl)-2-(3-(diisobutylamino)propyl)-[1,2,4]triazolo[4,3-a]pyridin-3(2H)-one] had an IC50 of 0.0067 µM.

The term IC50 denotes the concentration at which inhibition is half-maximal. Low readings indicate greater potency in that assay, high ones weaker potency in that assay.
